Measured values from patent publication US9802960B2 (MILLENNIUM PHARMACEUTICALS, INC., priority 2014, dated 2017).

target: Human VPS34 (Homo sapiens (Human), UniProt Q8NEB9); test: Human VPS34 enzyme assay (Adapta TR-FRET); assay type: biochemical; conditions: compound concentration 1.11 μM; read-out: Percent Inhibition
Sequence (Q8NEB9 whole entry): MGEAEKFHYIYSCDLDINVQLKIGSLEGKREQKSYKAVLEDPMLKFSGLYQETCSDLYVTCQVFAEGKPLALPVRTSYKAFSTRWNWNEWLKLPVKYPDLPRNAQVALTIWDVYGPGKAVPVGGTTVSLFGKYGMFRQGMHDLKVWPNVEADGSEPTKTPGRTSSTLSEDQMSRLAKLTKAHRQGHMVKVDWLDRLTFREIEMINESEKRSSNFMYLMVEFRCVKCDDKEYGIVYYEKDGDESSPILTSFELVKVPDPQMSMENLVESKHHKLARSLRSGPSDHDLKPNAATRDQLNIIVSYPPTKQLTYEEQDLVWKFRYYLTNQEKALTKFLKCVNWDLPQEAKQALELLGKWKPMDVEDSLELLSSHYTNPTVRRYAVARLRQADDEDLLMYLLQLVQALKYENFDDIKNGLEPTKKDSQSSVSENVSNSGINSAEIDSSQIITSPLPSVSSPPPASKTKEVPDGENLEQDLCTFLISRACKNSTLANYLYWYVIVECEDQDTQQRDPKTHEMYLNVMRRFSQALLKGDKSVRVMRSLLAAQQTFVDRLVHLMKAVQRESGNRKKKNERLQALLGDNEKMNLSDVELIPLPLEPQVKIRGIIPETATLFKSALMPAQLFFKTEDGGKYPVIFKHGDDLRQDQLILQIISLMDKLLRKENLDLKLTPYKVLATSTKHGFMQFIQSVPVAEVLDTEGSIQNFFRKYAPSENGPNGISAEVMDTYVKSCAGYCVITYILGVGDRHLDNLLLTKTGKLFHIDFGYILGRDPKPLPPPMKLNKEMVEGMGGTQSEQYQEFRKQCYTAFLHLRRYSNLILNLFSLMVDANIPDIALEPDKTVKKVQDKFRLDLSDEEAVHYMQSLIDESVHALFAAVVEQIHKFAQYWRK

Row | SMILES | inhibition at 1.11 µM [%]
1 | CC(=O)Nc1cc(-c2cnc(C)c(N3CC=CS3(=O)=O)c2)ccn1 [Compound I-416, N-[5-(1,1-dioxidoisothiazol-2(3H)-yl)-6-methyl-3,4′-bipyridin-2′-yl]acetamide] | > 99
2 | CCOCCS(=O)(=O)c1cc(-c2ccnc(NC(C)=O)c2)cnc1N [Compound I-145, N-{6-amino-5-[(2-ethoxyethyl)sulfonyl]-3,4′-bipyridin-2′-yl}acetamide] | > 99
3 | CC(=O)Nc1cc(-c2cnc(N)c(S(=O)(=O)NCCc3ccccc3)c2)ccn1 [Compound I-148, N-{6-amino-5-[(2-phenylethyl)sulfamoyl]-3,4′-bipyridin-2′-yl}acetamide] | > 99
4 | Cc1cnc(NC(=O)C2CC2)cc1-c1cnc(Cl)c(NS(=O)(=O)c2ccc(F)cc2F)c1C [Compound I-430, N-(6-chloro-5-{[(2,4-difluorophenyl)sulfonyl]amino}-4,5′-dimethyl-3,4′-bipyridin-2′-yl)cyclopropanecarboxamide] | 92
5 | CC(=O)Nc1cc(-c2cnc3[nH]ncc3c2)ccn1 [Compound I-189, N-[4-(1H-pyrazolo[3,4-b]pyridin-5-yl)pyridin-2-yl]acetamide] | > 99
6 | CC(=O)Nc1cc(-c2cnc(C)c(NS(=O)(=O)c3ccc(C(C)(C)C)cc3)c2)ccn1 [Compound I-131, N-(5-{[(4-tert-butylphenyl)sulfonyl]amino}-6-methyl-3,4′-bipyridin-2′-yl)acetamide] | > 99
7 | Cc1c(-c2ccnc(Nc3ncc(C#N)cn3)c2)cnc(Cl)c1NS(=O)(=O)c1ccc(F)cc1F [Compound I-300, N-{6-chloro-2′-[(5-cyanopyrimidin-2-yl)amino]-4-methyl-3,4′-bipyridin-5-yl}-2,4-difluorobenzene sulfonamide] | 96
8 | CC(=O)Nc1cc(-c2cnc(Cl)c(N3CCCNS3(=O)=O)c2C)ccn1 [Compound I-473, N-[6-chloro-5-(1,1-dioxido-1,2,6-thiadiazinan-2-yl)-4-methyl-3,4′-bipyridin-2′-yl]acetamide] | 87
9 | CC(=O)Nc1cc(-c2cnc(N)c(S(=O)(=O)Cc3ccc4ccccc4c3)c2)ccn1 [Compound I-3] | 87
10 | CC(=O)Nc1cc(-c2cncc(N3CCOc4cc(F)ccc4S3(=O)=O)c2)ccn1 [Compound I-405] | > 99
11 | CC(=O)Nc1cc(-c2cnc(C)c(NS(=O)(=O)c3ccc(C(C)C)cc3)c2)ccn1 [Compound I-134, N-(5-{[(4-isopropylphenyl)sulfonyl]amino}-6-methyl-3,4′-bipyridin-2′-yl)acetamide] | > 99
12 | CC(=O)Nc1cc(-c2cnc(N)c(S(=O)(=O)C(C)C)c2)ccn1 [Compound I-175, N-[6-amino-5-(isopropylsulfonyl)-3,4′-bipyridin-2′-yl]acetamide] | > 99
13 | CC(=O)Nc1cc(-c2cnc(C)c(NS(=O)(=O)c3ccc(F)cc3F)c2C)ccn1 [Compound I-247, N-(5-{[(2,4-difluorophenyl)sulfonyl]amino}-4,6-dimethyl-3,4′-bipyridin-2′-yl)acetamide] | > 99
14 | CC(=O)Nc1cc(-c2cnc(C)c(NS(=O)(=O)N3CCC3)c2)ccn1 [Compound I-257, N-{5-[(azetidin-1-ylsulfonyl)amino]-6-methyl-3,4′-bipyridin-2′-yl}acetamide] | > 99
15 | Cc1nccc(Nc2cc(-c3cc(N)c4ccnn4c3)ccn2)n1 [Compound I-480, 6-{2-[(2-methylpyrimidin-4-yl)amino]pyridin-4-yl}pyrazolo[1,5-a]pyridin-4-amine] | 99
16 | CC(=O)Nc1cc(-c2cnc(C)c(NS(=O)(=O)c3ccsc3)c2)ccn1 [Compound I-203, N-{6-methyl-5-[(3-thienylsulfonyl)amino]-3,4′-bipyridin-2′-yl}acetamide] | > 99
17 | CC(=O)Nc1cc(-c2cnc(C)c(NS(=O)(=O)c3cccc(F)c3Cl)c2)ccn1 [Compound I-322, N-(5-{[(2-chloro-3-fluorophenyl)sulfonyl]amino}-6-methyl-3,4′-bipyridin-2′-yl)acetamide] | 96
18 | Cc1nc(Nc2cc(-c3cnc(C)c(NS(=O)(=O)N(C)C)c3)ccn2)ccc1C#N [Compound I-229, N-{2′-[(5-cyano-6-methylpyridin-2-yl)amino]-6-methyl-3,4′-bipyridin-5-yl}-N,N-dimethylsulfuric diamide] | > 99
19 | CC(=O)Nc1cc(-c2cnc3[nH]cc(S(=O)(=O)N4CCN(C)CC4)c3c2)ccn1 [Compound I-103, N-(4-{3-[(4-methylpiperazin-1-yl)sulfonyl]-1H-pyrrolo[2,3-b]pyridin-5-yl}pyridin-2-yl)acetamide] | > 99
20 | CCOc1cc(-c2ccnc(Nc3ccnc(C)n3)c2)cnc1C [Compound I-479, 5-ethoxy-6-methyl-N-(2-methylpyrimidin-4-yl)-3,4′-bipyridin-2′-amine] | 98
21 | CC(=O)Nc1cc(-c2cncc(S(=O)(=O)N3CCC(F)(F)CC3)c2)ccn1 [Compound I-9, N-{5-[(4,4-difluoropiperidin-1-yl)sulfonyl]-3,4′-bipyridin-2′-yl}acetamide] | > 99

Row | SMILES | inhibition at 1.11 µM [%]
22 | COc1cccc(S(=O)(=O)Nc2cc(-c3ccnc(NC(C)=O)c3)cnc2C)c1 [Compound I-123] | > 99
23 | CC(=O)Nc1cc(-c2cnc(Cl)c(NS(=O)(=O)c3ccccc3)c2C)ccn1 [Compound I-312, N-{6-chloro-4-methyl-5-[(phenylsulfonyl)amino]-3,4′-bipyridin-2′-yl}acetamide] | > 99
24 | O=C(c1cncc(-c2ccnc(Nc3ccnc(C4CC4)n3)c2)c1)N1CC(F)(F)C1 [Compound I-413] | > 99
25 | Cc1ncc(-c2ccnc(Nc3ccnc(C4CC4)n3)c2)cc1C(=O)N1CCC1 [Compound I-246, azetidin-1-yl{2′-[(2-cyclopropylpyrimidin-4-yl)amino]-6-methyl-3,4′-bipyridin-5-yl}methanone] | 91
26 | CC(=O)Nc1cc(-c2cnc(Cl)c(S(=O)(=O)N[C@@H](CO)c3ccccc3)c2)ccn1 [Compound I-403, N-(6-chloro-5-{[(1R)-2-hydroxy-1-phenylethyl]sulfamoyl}-3,4′-bipyridin-2′-yl)acetamide] | 92
27 | CC(=O)Nc1cc(-c2cnc(N)c(C(=O)NC(=N)N)c2)ccn1 [Compound I-409, 2′-acetamido-6-amino-N-carbamimidoyl-3,4′-bipyridine-5-carboxamide] | 82
28 | N=C(N)NC(=O)c1cc(-c2ccnc(Nc3ccncn3)c2)cnc1N [Compound I-216, 6-Amino-N-carbamimidoyl-2′-(pyrimidin-4-ylamino)-3,4′-bipyridine-5-carboxamide] | 97
29 | CC(=O)Nc1cc(-c2cnc(N)c(S(=O)(=O)N3CCCCC3)c2)ccn1 [Compound I-156, N-[6-amino-5-(piperidin-1-ylsulfonyl)-3,4′-bipyridin-2′-yl]acetamide] | > 99
30 | CC(=O)Nc1cc(-c2cncc(C=O)c2)ccn1 [Compound I-184, N-(5-formyl-3,4′-bipyridin-2′-yl)acetamide] | 74
31 | COc1nccc(Nc2cc(-c3cncc(C(=O)N(C)C45CC(C4)C5)c3)ccn2)n1 [Compound I-245, N-(bicyclo[1.1.1]pent-1-yl)-2′-[(2-methoxypyrimidin-4-yl)amino]-N-methyl-3,4′-bipyridine-5-carboxamide] | > 99
32 | CC(=O)Nc1cc(-c2cnc(C)c(NS(=O)(=O)c3cccnc3)c2)ccn1 [Compound I-45, N-{6-methyl-5-[(pyridin-3-ylsulfonyl)amino]-3,4′-bipyridin-2′-yl}acetamide] | > 99
33 | CC(=O)Nc1cc(-c2cnc(C)c(NS(=O)(=O)N3CCOCC3)c2)ccn1 [Compound I-447, N-{6-methyl-5-[(morpholin-4-ylsulfonyl)amino]-3,4′-bipyridin-2′-yl}acetamide] | 98
34 | COC(=O)Nc1cc(-c2cnc(N)c(S(=O)(=O)C(C)C)c2)ccn1 [Compound I-34, methyl[6-amino-5-(isopropylsulfonyl)-3,4′-bipyridin-2′-yl]carbamate] | > 99
35 | CC(=O)Nc1cc(-c2cncc(S(=O)(=O)N3CCC3)c2)ccn1 [Compound I-474, N-[5-(azetidin-1-ylsulfonyl)-3,4′-bipyridin-2′-yl]acetamide] | 89
36 | CCS(=O)(=O)c1cc(-c2ccnc(NC(C)=O)c2)cnc1N [Compound I-69, N-[6-amino-5-(ethylsulfonyl)-3,4′-bipyridin-2′-yl]acetamide] | > 99
37 | CN(C)S(=O)(=O)Nc1cc(-c2ccnc(Nc3ccnc(C4CC4)n3)c2)cn2nccc12 [Compound I-427, N′-(6-{2-[(2-cyclopropylpyrimidin-4-yl)amino]pyridin-4-yl}pyrazolo[1,5-a]pyridin-4yl)-N,N-dimethylsulfuric diamide] | > 99
38 | CCN(CC)S(=O)(=O)c1cc(-c2ccnc(NC(C)=O)c2)cnc1C [Compound I-370, N-[5-(diethylsulfamoyl)-6-methyl-3,4′-bipyridin-2′-yl]acetamide] | > 99
39 | CC(=O)Nc1cc(-c2cnc(N)c(C(=O)N3CC[C@@H](F)C3)c2)ccn1 [Compound I-157, N-(6-amino-5-{[(3R)-3-fluoropyrrolidin-1-yl]carbonyl}-3,4′-bipyridin-2′-yl)acetamide] | > 99
40 | Cc1cnc(NC(=O)C2CC2)cc1-c1cnc(C)c(NS(=O)(=O)c2ccc(F)cc2F)c1 [Compound I-4, N-(5-{[(2,4-difluorophenyl)sulfonyl]amino}-5′,6-dimethyl-3,4′-bipyridin-2′-yl)cyclopropanecarboxamide] | > 99
41 | CC(=O)Nc1cc(-c2cnc(C)c(NS(=O)(=O)C3CCCCC3)c2)ccn1 [Compound I-72, N-{5-[(cyclohexylsulfonyl)amino]-6-methyl-3,4′-bipyridin-2′-yl}acetamide] | > 99
42 | CN(C)S(=O)(=O)c1cc(-c2ccnc(Nc3ncco3)c2)cnc1N [Compound I-166, 6-amino-N,N-dimethyl-2′-(1,3-oxazol-2-ylamino)-3,4′-bipyridine-5-sulfonamide] | > 99
